PubChem BioAssay (NCI)
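Abbreviation: GI50, concentration required for 50% inhibition of growth. TGI denotes the concentration required for complete inhibition of growth.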

What was measured:
Assay in all cases: NCI anticancer screen, dose series, 384-well format
[1] = tested on: SN12C renal
[2] = tested on: HL-60(TB) leukemia
[3] = tested on: HOP-62 NSCLC
[4] = tested on: DU-145 prostate
[5] = tested on: RPMI-8226 leukemia
[6] = tested on: T-47D breast
[7] = tested on: A498 renal
[8] = tested on: CAKI-1 renal
[9] = tested on: MALME-3M melanoma
[10] = tested on: HCC-2998 colon
[11] = tested on: MOLT-4 leukemia
[12] = tested on: HOP-92 NSCLC
[13] = tested on: MDA-MB-231 breast
[14] = tested on: M14 melanoma
[15] = tested on: KM12 colon
[16] = tested on: SK-OV-3 ovarian
[17] = tested on: RXF 393 renal
[18] = tested on: SW-620 colon
[19] = tested on: SR leukemia
[20] = tested on: TK-10 renal
[21] = tested on: HS 578T breast
[22] = tested on: IGROV1 ovarian
[23] = tested on: BT-549 breast
[24] = tested on: SNB-75 CNS
[25] = tested on: MDA-MB-468 breast
[26] = tested on: NCI-H322M lung
[27] = tested on: SK-MEL-5 melanoma
[28] = tested on: SF-295 CNS
[29] = tested on: NCI-H460 NSCLC
[30] = tested on: PC-3 prostate
[31] = tested on: HT29 colon
[32] = tested on: NCI-H522 lung
[33] = tested on: OVCAR-3 ovarian
[34] = tested on: U251 glioblastoma
[35] = tested on: HCT-116 colon
[36] = tested on: 786-0 renal
[37] = tested on: NCI-H23 lung
[38] = tested on: ACHN renal
[39] = tested on: SF-539 CNS
[40] = tested on: SK-MEL-28 melanoma
[41] = tested on: A549 NSCLC
[42] = tested on: SNB-19 CNS
[43] = tested on: NCI/ADR-RES ovarian
[44] = tested on: LOX IMVI melanoma
[45] = tested on: NCI-H226 lung
[46] = tested on: EKVX NSCLC
[47] = tested on: MDA-MB-435 melanoma
[48] = tested on: SF-268 CNS
[49] = tested on: OVCAR-8 ovarian
[50] = tested on: UACC-62 melanoma
[51] = tested on: UO-31 renal
[52] = tested on: UACC-257 melanoma
[53] = tested on: OVCAR-5 ovarian
[54] = tested on: HCT-15 colon
[55] = tested on: COLO 205 colon
[56] = tested on: MCF7 breast
[57] = tested on: OVCAR-4 ovarian

COc1cc2nccc(Oc3ccc(NC(=O)NC4CC4)c(Cl)c3)c2cc1C(N)=O
GI50 [1]: 13.4 µM | TGI [1]: 86.9 µM | GI50 [2]: 25.6 µM | TGI [2]: 68.9 µM | GI50 [3]: 38.2 µM | TGI [3]: > 100 µM | GI50 [4]: 26.1 µM | TGI [4]: > 100 µM | GI50 [5]: 11.7 µM | TGI [5]: 63 µM | GI50 [6]: 16.8 µM | TGI [6]: 78.7 µM | GI50 [7]: 22 µM | TGI [7]: 69.6 µM | GI50 [8]: 9.97 µM | TGI [8]: 35.1 µM | GI50 [9]: 19.3 µM | TGI [9]: 77.8 µM | GI50 [10]: > 100 µM | TGI [10]: > 100 µM | GI50 [11]: 5.38 µM | TGI [11]: 23.3 µM | GI50 [12]: 14.5 µM | TGI [12]: 72.1 µM | GI50 [13]: 17.3 µM | TGI [13]: 59.4 µM | GI50 [14]: 23.4 µM | TGI [14]: 64.9 µM | GI50 [15]: 5.76 µM | TGI [15]: > 100 µM | GI50 [16]: 35.9 µM | TGI [16]: > 100 µM | GI50 [17]: 3.53 µM | TGI [17]: 25.1 µM | GI50 [18]: 77.4 µM | TGI [18]: > 100 µM | GI50 [19]: 31.4 µM | TGI [19]: 50.9 µM | GI50 [20]: 51.5 µM | TGI [20]: > 100 µM | GI50 [21]: 12.2 µM | TGI [21]: 28 µM | GI50 [22]: 19.2 µM | TGI [22]: 97.3 µM | GI50 [23]: 3.76 µM | TGI [23]: 20.4 µM | GI50 [24]: 12.1 µM | TGI [24]: 38.3 µM | GI50 [25]: 11.5 µM | TGI [25]: 66.2 µM | GI50 [26]: 48.3 µM | TGI [26]: > 100 µM | GI50 [27]: 17.8 µM | TGI [27]: 55.5 µM | GI50 [28]: 30.1 µM | TGI [28]: > 100 µM | GI50 [29]: 41 µM | TGI [29]: > 100 µM | GI50 [30]: 61.7 µM | TGI [30]: > 100 µM | GI50 [31]: > 100 µM | TGI [31]: > 100 µM | GI50 [32]: 5.29 µM | TGI [32]: 20.6 µM | GI50 [33]: 17.9 µM | TGI [33]: 78 µM | GI50 [34]: 30.7 µM | TGI [34]: > 100 µM | GI50 [35]: 38.3 µM | TGI [35]: > 100 µM | GI50 [36]: 22.9 µM | TGI [36]: > 100 µM | GI50 [37]: 14.2 µM | TGI [37]: 55.8 µM | GI50 [38]: 11.6 µM | TGI [38]: 24.2 µM | GI50 [39]: 2.41 µM | TGI [39]: 69.4 µM | GI50 [40]: 72.8 µM | TGI [40]: > 100 µM | GI50 [41]: 40 µM | TGI [41]: > 100 µM | GI50 [42]: 44.6 µM | TGI [42]: > 100 µM | GI50 [43]: 63.8 µM | TGI [43]: > 100 µM | GI50 [44]: 52.2 µM | TGI [44]: > 100 µM | GI50 [45]: 0.817 µM | TGI [45]: 22.2 µM | GI50 [46]: 29.1 µM | TGI [46]: > 100 µM | GI50 [47]: 74.1 µM | TGI [47]: > 100 µM | GI50 [48]: 15.9 µM | TGI [48]: 44.6 µM | GI50 [49]: 25.5 µM | TGI [49]: > 100 µM | GI50 [50]: 39.7 µM | TGI [50]: > 100 µM | GI50 [51]: 15.9 µM | TGI [51]: 71.1 µM | GI50 [52]: 38.3 µM | TGI [52]: > 100 µM | GI50 [53]: 50 µM | TGI [53]: > 100 µM | GI50 [54]: 25.8 µM | TGI [54]: > 100 µM | GI50 [55]: 69.5 µM | TGI [55]: > 100 µM | GI50 [56]: 35.4 µM | TGI [56]: > 100 µM | GI50 [57]: 14.7 µM | TGI [57]: 44.7 µM
